Test results reported in paper PMC9186362, “Design and biological evaluation of substituted 5,7-dihydro-6H-indolo[2,3-c]quinolin-6-one as novel selective Haspin inhibitors” (Journal of Enzyme Inhibition and Medicinal Chemistry, 2022).

Experiments:
Assay in all cases: SelectScreen ZLYTE
Format in all cases: biochemical
[1] = biological target: T1, GRK7 (Homo sapiens, UniProt Q8WTQ7); details: ATP Km, read-out: Percentage of inhibition
T1 construct: purchased Life Technologies (SelectScreen service)
Method in brief: (§1)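 In a large-scale selectivity screen, each kinase was exposed to the inhibitor at 1 μM, and the read-out was expressed as percentage inhibition.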

[2] = biological target: T2, MERTK (Homo sapiens, UniProt Q12866); details: ATP Km, read-out: Percentage of inhibition
T2 construct: purchased Life Technologies (SelectScreen Whole Panel service)
Method in brief: as §1

[3] = biological target: T3, INSRR (IRR) (Homo sapiens, UniProt P14616); details: ATP Km, read-out: Percentage of inhibition
T3 construct: purchased Life Technologies (SelectScreen Whole Panel)
Method in brief: as §1

[4] = biological target: T4, DCAMKL1 (DCLK1) (Homo sapiens, UniProt O15075); details: ATP Km, read-out: Percentage of inhibition
T4 construct: purchased Life Technologies
Method in brief: as §1

[5] = biological target: T5, EPHB3 (Homo sapiens, UniProt P54753); details: ATP Km, read-out: Percentage of inhibition
T5 construct: purchased Life Technologies (SelectScreen Whole Panel)
Method in brief: as §1

[6] = biological target: T6, JAK2 JH1 JH2 (Homo sapiens, UniProt O60674); details: ATP Km, read-out: Percentage of inhibition
T6 construct: JAK2 JH1 JH2; purchased Life Technologies
Method in brief: as §1

[7] = biological target: T7, DYRK1A (Homo sapiens, UniProt Q13627); details: ATP Km, read-out: Percentage of inhibition
T7 construct: purchased Life Technologies
Method in brief: as §1

[8] = biological target: T8, NEK9 (Homo sapiens, UniProt Q8TD19); details: ATP Km, read-out: Percentage of inhibition
T8 construct: purchased Life Technologies
Method in brief: as §1

[9] = biological target: T9, RET (Homo sapiens, UniProt P07949); details: ATP Km, read-out: Percentage of inhibition
T9 construct: purchased Life Technologies
Method in brief: as §1

[10] = biological target: T10, MAP4K2 (GCK) (Homo sapiens, UniProt Q12851); details: ATP Km, read-out: Percentage of inhibition
T10 construct: purchased Life Technologies (SelectScreen Whole Panel service)
Method in brief: as §1

[11] = biological target: T11, CSNK1G3 (CK1 gamma 3) (Homo sapiens, UniProt Q9Y6M4); details: ATP Km, read-out: Percentage of inhibition
T11 construct: purchased Life Technologies
Method in brief: as §1

[12] = biological target: KDR (VEGFR2) (Homo sapiens, UniProt P35968); details: ATP Km, read-out: Percentage of inhibition
Method in brief: as §1

[13] = biological target: PRKCD (PKC delta) (Homo sapiens, UniProt Q05655); details: ATP Km, read-out: Percentage of inhibition
Method in brief: as §1

[14] = biological target: T12, JAK1 (Homo sapiens, UniProt P23458); details: ATP Km, read-out: Percentage of inhibition
T12 construct: purchased Life Technologies (SelectScreen service)
Method in brief: as §1

[15] = biological target: T13, EGFR (ErbB1) L861Q (Homo sapiens, UniProt P00533, L861Q); details: ATP Km, read-out: Percentage of inhibition
T13 construct: purchased Life Technologies (SelectScreen)
Method in brief: as §1

[16] = biological target: T14, MAP4K4 (HGK) (Homo sapiens, UniProt O95819); details: ATP Km, read-out: Percentage of inhibition
T14 construct: purchased Life Technologies (SelectScreen service)
Method in brief: as §1

[17] = biological target: T15, TEK (Tie2) (Homo sapiens, UniProt Q02763); details: ATP Km, read-out: Percentage of inhibition
T15 construct: purchased Life Technologies (SelectScreen Whole Panel service)
Method in brief: as §1

[18] = biological target: T16, TNK1 (Homo sapiens, UniProt Q13470); details: ATP Km, read-out: Percentage of inhibition
T16 construct: purchased Life Technologies
Method in brief: as §1

[19] = biological target: T17, ABL1 (Homo sapiens, UniProt P00519); details: ATP Km, read-out: Percentage of inhibition
T17 construct: purchased Life Technologies (SelectScreen Whole Panel service)
Method in brief: as §1

[20] = biological target: T18, CSK (Homo sapiens, UniProt P41240); details: ATP Km, read-out: Percentage of inhibition
T18 construct: purchased Life Technologies (SelectScreen)
Method in brief: as §1

[21] = biological target: T19, ACVR1B (ALK4) (Homo sapiens, UniProt P36896); details: ATP Km, read-out: Percentage of inhibition
T19 construct: purchased Life Technologies (SelectScreen Whole Panel)
Method in brief: as §1

[22] = biological target: T20, KIT V559D (Homo sapiens, UniProt P10721, V559D); details: ATP Km, read-out: Percentage of inhibition
T20 construct: purchased Life Technologies
Method in brief: as §1

[23] = biological target: T21, AKT3 (PKB gamma) (Homo sapiens, UniProt Q9Y243); details: ATP Km, read-out: Percentage of inhibition
T21 construct: purchased Life Technologies
Method in brief: as §1

[24] = biological target: MAPK1 (ERK2) (Homo sapiens, UniProt P28482); details: ATP Km, read-out: Percentage of inhibition
Method in brief: as §1

[25] = biological target: T22, TEK (TIE2) Y897S (Homo sapiens, UniProt Q02763, Y897S); details: ATP Km, read-out: Percentage of inhibition
T22 construct: purchased Life Technologies (SelectScreen Whole Panel)
Method in brief: as §1

[26] = biological target: T23, MARK1 (MARK) (Homo sapiens, UniProt Q9P0L2); details: ATP Km, read-out: Percentage of inhibition
T23 construct: purchased Life Technologies (SelectScreen)
Method in brief: as §1

[27] = biological target: CDC42 BPA (MRCKA) (Homo sapiens, UniProt Q5VT25); details: ATP Km, read-out: Percentage of inhibition
Method in brief: as §1

[28] = biological target: T24, SGK (SGK1) (Homo sapiens, UniProt O00141); details: ATP Km, read-out: Percentage of inhibition
T24 construct: purchased Life Technologies
Method in brief: as §1

[29] = biological target: EGFR (ErbB1) T790M C797S L858R (Homo sapiens, UniProt P00533, C797S/L858R/T790M); details: ATP Km, read-out: Percentage of inhibition
Method in brief: as §1

[30] = biological target: T25, JAK3 (Homo sapiens, UniProt P52333); details: ATP Km, read-out: Percentage of inhibition
T25 construct: purchased Life Technologies (SelectScreen service)
Method in brief: as §1

[31] = biological target: T26, AURKC (Aurora C) (Homo sapiens, UniProt Q9UQB9); details: ATP Km, read-out: Percentage of inhibition
T26 construct: purchased Life Technologies (SelectScreen Whole Panel service)
Method in brief: as §1

[32] = biological target: PDK1 (Homo sapiens, UniProt O15530); details: ATP 100 µM, read-out: Percentage of inhibition
Method in brief: as §1

[33] = biological target: T27, NTRK2 (TRKB) (Homo sapiens, UniProt Q16620); details: ATP Km, read-out: Percentage of inhibition
T27 construct: purchased Life Technologies (SelectScreen service)
Method in brief: as §1

[34] = biological target: AKT2 (PKB beta) (Homo sapiens, UniProt P31751); details: ATP Km, read-out: Percentage of inhibition
Method in brief: as §1

[35] = biological target: T28, ROCK1 (Homo sapiens, UniProt Q13464); details: ATP Km, read-out: Percentage of inhibition
T28 construct: purchased Life Technologies (SelectScreen Whole Panel service)
Method in brief: as §1

[36] = biological target: T29, PTK2 (FAK) (Homo sapiens, UniProt Q05397); details: ATP Km, read-out: Percentage of inhibition
T29 construct: purchased Life Technologies (SelectScreen service)
Method in brief: as §1

[37] = biological target: T30, MAPK7 (ERK5) (Homo sapiens, UniProt Q13164); details: ATP Km, read-out: Percentage of inhibition
T30 construct: purchased Life Technologies (SelectScreen)
Method in brief: as §1

[38] = biological target: T31, GRK6 (Homo sapiens, UniProt P43250); details: ATP Km, read-out: Percentage of inhibition
T31 construct: purchased Life Technologies
Method in brief: as §1

T15 sequence (Q02763 23-1124): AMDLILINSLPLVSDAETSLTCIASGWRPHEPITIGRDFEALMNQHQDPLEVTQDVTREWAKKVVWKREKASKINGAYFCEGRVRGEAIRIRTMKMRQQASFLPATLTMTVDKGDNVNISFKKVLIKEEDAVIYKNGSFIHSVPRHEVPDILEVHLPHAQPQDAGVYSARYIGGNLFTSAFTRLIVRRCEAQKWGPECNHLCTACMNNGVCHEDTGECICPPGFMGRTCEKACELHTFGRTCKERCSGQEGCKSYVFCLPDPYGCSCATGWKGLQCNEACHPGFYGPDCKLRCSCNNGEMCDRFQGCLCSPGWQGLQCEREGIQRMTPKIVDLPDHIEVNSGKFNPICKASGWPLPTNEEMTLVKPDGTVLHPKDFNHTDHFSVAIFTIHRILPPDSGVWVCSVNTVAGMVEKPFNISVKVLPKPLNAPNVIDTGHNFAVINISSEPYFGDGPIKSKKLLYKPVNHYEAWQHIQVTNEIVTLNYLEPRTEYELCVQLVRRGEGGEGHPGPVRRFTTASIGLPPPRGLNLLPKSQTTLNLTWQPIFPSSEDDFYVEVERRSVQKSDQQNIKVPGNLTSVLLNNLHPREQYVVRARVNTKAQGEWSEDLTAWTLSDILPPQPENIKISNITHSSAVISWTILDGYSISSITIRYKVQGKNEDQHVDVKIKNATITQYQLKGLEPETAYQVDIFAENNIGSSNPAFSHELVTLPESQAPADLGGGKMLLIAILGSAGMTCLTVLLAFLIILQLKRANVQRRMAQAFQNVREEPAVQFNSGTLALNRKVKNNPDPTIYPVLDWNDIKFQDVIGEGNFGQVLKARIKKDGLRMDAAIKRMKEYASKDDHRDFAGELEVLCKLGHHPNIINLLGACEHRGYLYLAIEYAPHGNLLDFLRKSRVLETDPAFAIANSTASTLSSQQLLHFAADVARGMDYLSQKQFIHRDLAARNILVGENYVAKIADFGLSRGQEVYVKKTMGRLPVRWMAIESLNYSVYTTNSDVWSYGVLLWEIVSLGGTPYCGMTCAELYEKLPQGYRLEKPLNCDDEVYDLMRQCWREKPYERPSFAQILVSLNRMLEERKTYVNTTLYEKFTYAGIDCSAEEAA
T9 sequence (P07949 29-1114): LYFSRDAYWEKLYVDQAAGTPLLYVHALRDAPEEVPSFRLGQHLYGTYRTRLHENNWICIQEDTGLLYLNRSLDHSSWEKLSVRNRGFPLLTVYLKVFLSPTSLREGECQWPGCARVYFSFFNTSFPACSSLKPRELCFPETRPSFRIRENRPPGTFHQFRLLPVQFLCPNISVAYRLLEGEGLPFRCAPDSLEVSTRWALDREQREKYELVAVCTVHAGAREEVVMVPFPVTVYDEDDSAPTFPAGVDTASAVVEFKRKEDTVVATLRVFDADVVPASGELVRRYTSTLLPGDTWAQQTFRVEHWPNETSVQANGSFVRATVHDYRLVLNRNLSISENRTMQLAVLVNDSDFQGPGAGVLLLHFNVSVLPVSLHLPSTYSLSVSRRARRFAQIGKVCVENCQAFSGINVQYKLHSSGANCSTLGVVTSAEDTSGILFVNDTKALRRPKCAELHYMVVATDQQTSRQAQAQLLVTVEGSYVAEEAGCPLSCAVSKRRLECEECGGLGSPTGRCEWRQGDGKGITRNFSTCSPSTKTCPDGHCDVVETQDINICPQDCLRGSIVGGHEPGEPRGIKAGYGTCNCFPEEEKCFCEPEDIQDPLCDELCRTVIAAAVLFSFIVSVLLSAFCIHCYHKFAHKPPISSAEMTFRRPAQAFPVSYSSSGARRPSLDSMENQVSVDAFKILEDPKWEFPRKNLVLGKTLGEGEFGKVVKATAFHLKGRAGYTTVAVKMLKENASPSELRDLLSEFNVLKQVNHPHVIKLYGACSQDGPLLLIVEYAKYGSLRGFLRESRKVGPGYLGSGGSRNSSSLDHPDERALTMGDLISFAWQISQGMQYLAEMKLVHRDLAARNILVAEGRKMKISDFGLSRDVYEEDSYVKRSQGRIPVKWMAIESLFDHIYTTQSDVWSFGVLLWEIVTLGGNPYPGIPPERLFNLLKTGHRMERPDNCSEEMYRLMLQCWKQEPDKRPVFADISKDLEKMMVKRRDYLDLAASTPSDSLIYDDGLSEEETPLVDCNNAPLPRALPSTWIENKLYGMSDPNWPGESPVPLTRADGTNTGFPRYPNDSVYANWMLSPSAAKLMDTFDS
T30 sequence (Q13164 whole entry): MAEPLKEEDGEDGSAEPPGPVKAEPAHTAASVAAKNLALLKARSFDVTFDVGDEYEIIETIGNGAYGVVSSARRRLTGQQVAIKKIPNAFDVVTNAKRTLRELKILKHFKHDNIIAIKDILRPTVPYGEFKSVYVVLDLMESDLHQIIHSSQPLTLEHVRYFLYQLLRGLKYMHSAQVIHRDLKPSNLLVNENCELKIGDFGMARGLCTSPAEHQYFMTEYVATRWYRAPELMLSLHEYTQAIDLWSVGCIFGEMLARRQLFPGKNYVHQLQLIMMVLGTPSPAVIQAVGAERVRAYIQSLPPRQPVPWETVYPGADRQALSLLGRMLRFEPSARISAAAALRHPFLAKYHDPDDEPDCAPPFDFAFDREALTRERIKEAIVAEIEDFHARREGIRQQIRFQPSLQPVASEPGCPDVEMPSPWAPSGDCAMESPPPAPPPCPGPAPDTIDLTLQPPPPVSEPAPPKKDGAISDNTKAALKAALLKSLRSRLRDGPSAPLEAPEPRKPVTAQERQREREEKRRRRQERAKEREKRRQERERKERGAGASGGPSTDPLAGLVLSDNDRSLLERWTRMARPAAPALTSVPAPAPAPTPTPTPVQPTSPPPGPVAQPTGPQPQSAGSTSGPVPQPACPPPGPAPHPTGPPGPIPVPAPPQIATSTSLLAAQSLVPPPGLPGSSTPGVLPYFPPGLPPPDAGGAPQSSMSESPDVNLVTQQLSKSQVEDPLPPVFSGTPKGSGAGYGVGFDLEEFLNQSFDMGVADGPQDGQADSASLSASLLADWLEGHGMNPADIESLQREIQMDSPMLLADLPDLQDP
T5 sequence (P54753 34-998): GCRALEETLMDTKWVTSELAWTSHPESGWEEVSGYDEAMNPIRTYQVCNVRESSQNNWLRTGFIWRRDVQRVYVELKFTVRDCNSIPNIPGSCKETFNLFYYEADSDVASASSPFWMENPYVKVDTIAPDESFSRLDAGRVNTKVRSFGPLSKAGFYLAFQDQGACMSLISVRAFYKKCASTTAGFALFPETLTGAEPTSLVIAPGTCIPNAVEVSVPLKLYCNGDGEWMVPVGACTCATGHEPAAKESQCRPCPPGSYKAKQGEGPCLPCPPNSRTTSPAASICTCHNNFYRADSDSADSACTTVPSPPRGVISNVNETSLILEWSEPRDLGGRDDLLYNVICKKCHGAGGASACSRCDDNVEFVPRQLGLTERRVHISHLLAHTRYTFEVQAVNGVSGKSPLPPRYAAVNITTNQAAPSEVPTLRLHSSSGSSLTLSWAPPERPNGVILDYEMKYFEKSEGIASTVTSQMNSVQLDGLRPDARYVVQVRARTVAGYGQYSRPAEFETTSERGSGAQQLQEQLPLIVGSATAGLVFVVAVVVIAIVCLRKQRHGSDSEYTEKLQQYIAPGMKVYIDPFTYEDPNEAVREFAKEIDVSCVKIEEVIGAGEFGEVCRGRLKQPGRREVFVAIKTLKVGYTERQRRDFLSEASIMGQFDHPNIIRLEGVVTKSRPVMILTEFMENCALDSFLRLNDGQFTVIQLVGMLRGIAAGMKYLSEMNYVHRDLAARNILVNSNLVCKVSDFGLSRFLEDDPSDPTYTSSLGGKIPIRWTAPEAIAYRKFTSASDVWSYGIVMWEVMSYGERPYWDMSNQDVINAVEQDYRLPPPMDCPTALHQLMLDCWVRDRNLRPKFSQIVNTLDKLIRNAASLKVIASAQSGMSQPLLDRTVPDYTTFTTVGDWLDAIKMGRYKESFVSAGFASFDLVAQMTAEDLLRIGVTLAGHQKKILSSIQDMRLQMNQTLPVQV
T20 sequence (P10721 26-976 V559D): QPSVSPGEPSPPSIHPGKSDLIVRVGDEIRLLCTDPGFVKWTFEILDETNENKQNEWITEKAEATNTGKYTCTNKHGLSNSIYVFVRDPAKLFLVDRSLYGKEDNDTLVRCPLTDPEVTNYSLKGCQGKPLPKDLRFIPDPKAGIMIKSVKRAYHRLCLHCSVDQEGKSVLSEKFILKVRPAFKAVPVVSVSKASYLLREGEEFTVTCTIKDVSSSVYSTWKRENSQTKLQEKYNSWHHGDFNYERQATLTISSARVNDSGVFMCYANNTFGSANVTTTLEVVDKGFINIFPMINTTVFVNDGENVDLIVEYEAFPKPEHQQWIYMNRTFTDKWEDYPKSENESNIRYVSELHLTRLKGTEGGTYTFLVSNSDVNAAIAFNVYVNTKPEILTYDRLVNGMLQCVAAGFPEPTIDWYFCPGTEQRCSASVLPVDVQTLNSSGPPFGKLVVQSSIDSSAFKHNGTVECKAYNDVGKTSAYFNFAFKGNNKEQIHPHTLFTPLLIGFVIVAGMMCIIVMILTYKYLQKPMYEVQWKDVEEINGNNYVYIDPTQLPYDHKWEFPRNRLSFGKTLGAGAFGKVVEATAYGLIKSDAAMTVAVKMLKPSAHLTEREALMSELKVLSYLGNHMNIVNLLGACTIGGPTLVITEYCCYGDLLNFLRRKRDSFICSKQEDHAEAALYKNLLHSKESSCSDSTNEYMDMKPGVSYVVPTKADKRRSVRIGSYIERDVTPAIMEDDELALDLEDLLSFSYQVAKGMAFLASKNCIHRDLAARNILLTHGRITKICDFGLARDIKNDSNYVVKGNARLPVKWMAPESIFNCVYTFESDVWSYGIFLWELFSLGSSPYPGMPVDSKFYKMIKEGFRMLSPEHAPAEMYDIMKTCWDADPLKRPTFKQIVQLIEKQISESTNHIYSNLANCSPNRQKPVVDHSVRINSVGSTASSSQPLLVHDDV
T22 sequence (Q02763 23-1124 Y897S): as the sequence (Q02763 23-1124) above, with Y875S counted along it

## COc1ccc2[nH]c3c(=O)[nH]c4ccc(O)cc4c3c2c1 [Compound 55, 2-Hydroxy-10-methoxy-5,7-dihydro-6H-indolo[2,3-c]quinolin-6-one]
[1]
  inhibition at 1 µM: 74%
[2]
  inhibition at 1 µM: 44%
[3]
  inhibition at 1 µM: 52%
[4]
  inhibition at 1 µM: 2%
[5]
  inhibition at 1 µM: -9%
[6]
  inhibition at 1 µM: 33%
[7]
  inhibition at 1 µM: 96%
[8]
  inhibition at 1 µM: 4%
[9]
  inhibition at 1 µM: 97%
[10]
  inhibition at 1 µM: 47%
[11]
  inhibition at 1 µM: 28%
[12]
  inhibition at 1 µM: 67%
[13]
  inhibition at 1 µM: 7%
[14]
  inhibition at 1 µM: 23%
[15]
  inhibition at 1 µM: 9%
[16]
  inhibition at 1 µM: 81%
[17]
  inhibition at 1 µM: 13%
[18]
  inhibition at 1 µM: 30%
[19]
  inhibition at 1 µM: 43%
[20]
  inhibition at 1 µM: 9%
[21]
  inhibition at 1 µM: -13%
[22]
  inhibition at 1 µM: 37%
[23]
  inhibition at 1 µM: 3%
[24]
  inhibition at 1 µM: 19%
[25]
  inhibition at 1 µM: 1%
[26]
  inhibition at 1 µM: 9%
[27]
  inhibition at 1 µM: 13%
[28]
  inhibition at 1 µM: 29%
[29]
  inhibition at 1 µM: 13%
[30]
  inhibition at 1 µM: 79%
[31]
  inhibition at 1 µM: 17%
[32]
  inhibition at 1 µM: 15%
[33]
  inhibition at 1 µM: 80%
[34]
  inhibition at 1 µM: 6%
[35]
  inhibition at 1 µM: 11%
[36]
  inhibition at 1 µM: 25%
[37]
  inhibition at 1 µM: 8%
[38]
  inhibition at 1 µM: 32%
